Measurements taken from patent publication US20250352534A1 (Tesaro, Inc., priority 2022, published 2025).
In brackets after ≈: the same amount, converted by molar mass. Where two headings read alike, the source gives them in different places.

Key:
[1] = brain penetration in healthy Rhesus macaque monkeys (LC-MS, MALDI IMS); assay type: in vivo; details: for Bulk Brain Homogenate, adjusted free concentration: LC-MS; for Terminal CSF / Terminal Plasma, adjusted free concentration: at necropsy; for Kp uu: male, rhesus monkey, brain homogenate / plasma, oral
Description: Pre-dose blood was collected daily and terminal blood, cerebrospinal fluid (CSF), and brain tissue was collected at necropsy. […] Blood, CSF, and bulk homogenates of brain tissue were analyzed by LC-MS bioanalysis.

[2] = system: BCRP (ABCG2); test: in vivo; details: male, rat, brain / plasma, intravenous, BCRP knock-out rat
Description: (§1) At least three days prior to the start of the study, six male rats per group (total 24 rats) received surgically implanted femoral vein and carotid artery catheters for infusion of the test molecule and blood sampling, respectively. Doses were filtered prior to administration and the actual dose administered to the animals was quantified. All PK parameters were calculated based on the actual dose administered to each animal. Animals received an intravenous bolus loading dose followed by a constant intravenous infusion to maintain steady state of drug level. At the end of the infusion, animals were euthanized and brain tissues were collected. Tissue homogenates were prepared in PBS (1:4 w/v). LC-MS/MS method was used to quantitate drug concentrations. Tissue homogenate concentrations were corrected for test compound contained in residual plasma in the tissue. The tissue-to-plasma ratio was calculated by dividing corrected tissue concentration by steady-state plasma concentration. […] Data are reported as fraction unbound (Fu).

[3] = system: P-gp (Mdr1-a) and BCRP (ABCG2); test: in vivo; details: male, rat, brain / plasma, intravenous; for Kp: Brain:plasma (Kp) ratio; for Kp uu: Unbound brain:plasma ratio (Kp, uu)
Description: as §1

[4] = system: P-gp (P-glycoprotein/Mdr1-a) and BCRP (ABCG2); test: in vivo
Description: as §1

[5] = system: P-gp (Mdr1-a); test: in vivo; details: male, rat, brain / plasma, intravenous, P-gp knock-out rat
Description: as §1

[6] = clinical safety, Phase 0 and expansion phase Arm A; details: for tolerability: glioblastoma patients
Description: (§2) Tumor tissue (enhancing and non-enhancing regions), cerebrospinal fluid (CSF), and plasma were collected. […] PARP inhibition was assessed by quantification of PAR induction after 10 Gy ex vivo irradiation in surgical tissue compared to non-irradiated control tissue. A PK ‘trigger’ determined eligibility for the therapeutic phase 2 expansion portion of the study.

[7] = clinical; details: human, oral
Description: (§3) The final presurgical dose will be administered 3-5 hours or 8-10 hours before tumor resection. Assignment to time-cohorts will be random. […] In each of the two time-cohorts, tumor PK and PD analyses will be performed at the Ivy Brain Tumor Center.
(§4) For PK analysis, blood, CSF, and brain tumor tissue samples (gadolinium enhancing and non-enhancing) will be collected intraoperatively. Additional blood samples will be obtained on Day 1 pre-dose and on Day 4 (the day of the surgery) at pre-dosing (trough level), 0.5, 1, 2, 4, 6, 9-, 12-, 24-, and 48-hours post-dose.
(§5) Tumor-to-plasma ratios will be calculated. All assays and analyses will be developed, validated, and performed at Ivy Brain Tumor Center.
(§6) Tumor tissue (enhancing and nonenhancing regions), cerebrospinal fluid (CSF), and plasma were collected. […] Evidence of PARP inhibition was assessed by 10 Gy ex vivo irradiation of surgical tissue and quantification of PARylation compared to non-irradiated control tissue.
as §2

[8] = system: cancer cells with mutant BRCA-1 and BRCA-2; details: read-out: inhibition of proliferation CC50; cited from earlier work
[9] = system: PARP activity; details: read-out: inhibition of PARP activity EC50; whole cell assay; cited from earlier work
[10] = brain penetration in mouse brain metastatic tumor model (LC-MS, MALDI IMS); assay type: in vivo, mice; details: for MALDI IMS Brain Section Median, adjusted free concentration / MALDI IMS Brain Section Median, total concentration / Bulk Brain Homogenate Avg, adjusted free concentration / Bulk Brain Homogenate Avg, total concentration / concentration at 2 h: 2 hr post final dose; for Bulk Brain Homogenate Avg, adjusted free concentration / Bulk Brain Homogenate Avg, total concentration: LC-MS; for concentration at 2 h: plasma, po QD 5 days, niraparib 35 mg/kg, olaparib 50 mg/kg, read-out: Terminal Plasma Avg, total concentration
Excerpt: Female mice (CrTac:NCr-Foxnlnu; 6 w/o) received 2.5E5 luciferase transfected human breast cancer line (MDA 231-BRM2-831) via intracardiac injection. Mice were imaged twice/week using bioluminescence imaging (BLI) to monitor tumor growth. […] Tissue collected between each imaging plane was homogenized for LC-MS bioanalysis.

[11] = in vitro; details: rat, brain homogenate
Description: as §1

[12] = system: PAR (PARP inhibition); details: 17/22 patients
Description: For PD analysis, intraoperatively-collected gadolinium-enhancing tumor tissue will be sectioned into 4 similarly-sized tissue portions. Two tissue specimens will be exposed to 10 Gy of IR using a RAD2000 device and two specimens will be sham irradiated (non-irradiated). One pair of sham control and 10 Gy radiated tissue will be fixed in formalin solution for FFPE slides. The other pair will be snap-frozen for PAR ELISA assay.
A ‘functional’ PD assay examining PAR activity in the setting of ex vivo irradiation will serve as a secondary endpoint in this protocol. In the Ivy Center's CLIA-certified PD Core, FFPE embedded tumor tissue from both ex vivo irradiated and non-irradiated to assess changes in PAR, cleaved caspase 3, γH2AX and Ki67 using immunohistochemistry (IHC) assays. Alternatively, ELISA assays to quantify PAR levels will be performed using frozen lysates from the second pair of control and irradiated samples.
Evidence of PARP inhibition was assessed by 10 Gy ex vivo irradiation of surgical tissue and quantification of PARylation compared to non-irradiated control tissue.
PARP inhibition was assessed by quantification of PAR induction after 10 Gy ex vivo irradiation in surgical tissue compared to non-irradiated control tissue.

[13] = physchem; details: aqueous buffer
[14] = system: MGMT-unmethylated newly-diagnosed glioblastoma
Excerpt: Participants will continue receiving maintenance treatment until progression of disease, unacceptable toxicity or death, withdrawal of consent, loss to follow-up, or study termination by sponsor.
• 1. […] Expansion: Examine progression-free survival rate measured from time of surgery to date of recurrence.

[15] = Phase 0 Arm A tumor pharmacokinetics (LC-MS/MS) in newly-diagnosed GBM patients
Description: as §3, §4, §5, §6, §2

[16] = healthy Rhesus macaque monkeys, five days oral administration
[17] = Unbound brain:plasma ratio (Kp, uu)
[18] = enhancing tumor tissue / plasma
[19] = non-enhancing tumor tissue / plasma

Compound: NC(=O)c1cccc2cn(-c3ccc([C@@H]4CCCNC4)cc3)nc12 [niraparib, (3S)-3-[4-{7-(aminocarbonyl)-2H-indazol-2-yl}phenyl]piperidine]
- MALDI IMS Brain Section Average, adjusted free concentration ([1]; Monkey 1): (10) ng/g
- Pre-Dose Plasma, total concentration ([1]; Monkey 1, Day 1, po daily 5 days, niraparib 6 mg/kg, olaparib 10 mg/kg): BQL
- Pre-Dose Plasma, adjusted free concentration ([1]; Monkey 1, Day 2): 10 ng/mL
- Pre-Dose Plasma, total concentration ([1]; Monkey 1, Day 2): 28 ng/mL
- Pre-Dose Plasma, adjusted free concentration ([1]; Monkey 1, Day 3): 18 ng/mL
- Pre-Dose Plasma, total concentration ([1]; Monkey 1, Day 3): 49 ng/mL
- Pre-Dose Plasma, adjusted free concentration ([1]; Monkey 1, Day 4): 22 ng/mL
- Pre-Dose Plasma, total concentration ([1]; Monkey 1, Day 4): 59 ng/mL
- Pre-Dose Plasma, adjusted free concentration ([1]; Monkey 1, Day 5): (26) ng/mL
- Pre-Dose Plasma, total concentration ([1]; Monkey 1, Day 5): 72 ng/mL
- Bulk Brain Homogenate, adjusted free concentration ([1]; Monkey 1): (14) ng/g
- Terminal CSF ([1]; Monkey 1): 9 ng/mL
- Terminal Plasma, adjusted free concentration ([1]; Monkey 1): (31) ng/mL
- Terminal Plasma, total concentration ([1]; Monkey 1, at necropsy after 5 daily oral doses): 84 ng/mL
- MALDI IMS Brain Section Average, adjusted free concentration ([1]; Monkey 2): (25) ng/g
- Pre-Dose Plasma, total concentration ([1]; Monkey 2, Day 1, po daily 5 days, niraparib 6 mg/kg, olaparib 10 mg/kg): BQL
- Pre-Dose Plasma, adjusted free concentration ([1]; Monkey 2, Day 2): 21 ng/mL
- Pre-Dose Plasma, total concentration ([1]; Monkey 2, Day 2): 58 ng/mL
- Pre-Dose Plasma, adjusted free concentration ([1]; Monkey 2, Day 3): 32 ng/mL
- Pre-Dose Plasma, total concentration ([1]; Monkey 2, Day 3): 87 ng/mL
- Pre-Dose Plasma, adjusted free concentration ([1]; Monkey 2, Day 4): 27 ng/mL
- Pre-Dose Plasma, total concentration ([1]; Monkey 2, Day 4): 74 ng/mL
- Pre-Dose Plasma, adjusted free concentration ([1]; Monkey 2, Day 5): (24) ng/mL
- Pre-Dose Plasma, total concentration ([1]; Monkey 2, Day 5): 66 ng/mL
- Bulk Brain Homogenate, adjusted free concentration ([1]; Monkey 2): (29) ng/g
- Terminal CSF ([1]; Monkey 2): 25 ng/mL
- Terminal Plasma, adjusted free concentration ([1]; Monkey 2): (160) ng/mL
- Kp,uu,brain, times higher for niraparib compared to olaparib [1, 16]: 15 ×
- detection and distribution in coronal brain sections by MALDI IMS [1, 16]: consistent concentrations distributed throughout the brain parenchyma
- Kp uu ([1]; Monkey 2, from bulk brain homogenate and terminal plasma free concentrations, read-out: Kp, uu Brain/Plasma): 0.16
- Kp uu ([1]; mean of Monkey 1 and 2, read-out: Mean Kp, uu Brain/Plasma): 0.3
- Kp ([2]; Brain:plasma (Kp) ratio): 0.64
- Kp uu [2, 17]: 0.15
- Kp ([3]; P-gp/BCRP double knock-out rat): 6.3
- Kp ([3]; control rat): 0.47
- Kp uu ([3]; P-gp/BCRP double knock-out rat): 1.5
- Kp uu ([3]; control rat): 0.1
- increase of brain tissue concentrations ([4]; BCRP knockout rats vs control): < 2 fold
- increase of brain tissue concentrations ([4]; Mdr1-a (P-gp) knockout rats vs control, iv bolus plus infusion, steady state): 9 fold
- increase of brain tissue concentrations ([4]; Pgp/BCRP double knockout rats vs control): 14 fold
- Kp ([5]; Brain:plasma (Kp) ratio): 3.7
- Kp uu [5, 17]: 0.87
- patients with thrombocytopenia related to niraparib ([6]; 6 initial patients enrolled in phase 2, niraparib with concurrent RT): Five of the 6
- patients with Grade 3 treatment-related adverse event (ALT and AST elevation) ([6]; Phase 0, twelve patients, 300 mg QD 4 days): one patient
- serious AEs after starting dose lowered to 200 mg ([6]; both phases): no serious AEs were observed thereafter
- patients with treatment-related thrombocytopenia ([6]; expansion phase, two patients enrolled): two patients
- tolerability [6]: well-tolerated, with low rates of grade 3+ toxicity
- tolerability ([6]; listed as Niraparib): generally well-tolerated
- thrombocytopenia cases deemed serious and life-threatening ([6]; of the 5 thrombocytopenia cases in phase 2): 3/5
- Kp [7, 18]: 7.89
- Kp uu [7, 18]: 1.8
- Kp [7, 19]: 4.27
- Kp uu [7, 19]: 0.8
- CC50 [8]: 10 to 100 nM
- EC50 [9]: 4 nM
- estimated mean Kp,uu,brain, times higher for niraparib compared to olaparib ([10]; BM mice): 5.6 ×
- MALDI IMS Brain Section Median, adjusted free concentration ([10]; BM mice): 80
- MALDI IMS Brain Section Median, total concentration ([10]; BM mice): 473
- Bulk Brain Homogenate Avg, adjusted free concentration ([10]; BM mice): 91 ng/g
- Bulk Brain Homogenate Avg, total concentration ([10]; BM mice): 543 ng/g
- MALDI IMS Brain Section Median, adjusted free concentration ([10]; Control mice): 89
- MALDI IMS Brain Section Median, total concentration ([10]; Control mice): 532
- Bulk Brain Homogenate Avg, adjusted free concentration ([10]; Control mice): 111 ng/g
- Bulk Brain Homogenate Avg, total concentration ([10]; Control mice): 658 ng/g
- estimated mean Kp,uu,brain, times higher for niraparib compared to olaparib ([10]; control mice): 3.0 ×
- Kp uu at 2 h post final dose ([10]; female, CrTac:NCr-Foxnlnu, mouse, oral, BM mice, from bulk brain homogenate and terminal plasma free concentrations): 0.18
- Kp uu at 2 h ([10]; female, CrTac:NCr-Foxnlnu, mouse, oral, Control mice, from bulk brain homogenate and terminal plasma free concentrations): 0.18
- concentration at 2 h ([10]; female, CrTac:NCr-Foxnlnu, mouse, oral, BM (brain metastases) mice): 2540 ng/mL
- concentration at 2 h ([10]; female, CrTac:NCr-Foxnlnu, mouse, oral, Control mice): 3100 ng/mL
- distribution in coronal brain sections by MALDI IMS ([10]; mice administered niraparib): consistent concentrations distributed throughout the brain parenchyma with locally higher concentrations detected from tumor regions
- fraction unbound [11]: 0.04
- patients with suppression of PAR levels after ex vivo radiation [12]: 79%
- solubility [13]: 700 to 1100 µg/mL (≈ 2180 to 3430 µM)
- outcome of the 6 patients with ≥6 months follow-up ([14]; MGMT-unmethylated PK-responders, niraparib in addition to radiotherapy): four are in remission and two had a recurrence of tumor
- PFS6 ([14]; niraparib with concurrent RT then maintenance, 11 patients, median follow-up 8.1 months): 64%
- mean unbound concentration in Gd-nonenhancing tumor region ([15]; 200 mg, 3-5 hr cohort 1 (n=6)): 250.8 nM
- mean unbound concentration in Gd-nonenhancing tumor region ([15]; 300 mg QD 4 days, 3-5 hr cohort (n=8), interim results): 340.9 nM
- mean unbound concentration in Gd-nonenhancing tumor region ([15]; 300 mg QD 4 days, 8-12 hr cohort (n=3)): 331.9 nM
- mean unbound concentration in Gd-nonenhancing tumor region ([15]; 300 mg, 3-5 hr cohort 1 (n=20)): 366.2 nM
- mean unbound concentration in non-enhancing regions ([15]; 300 or 200 mg QD 4 days, 29 patients, further interim results): 258.2 nM
